Test results from patent EP2884284A1, “Dry diagnostic reagent” (priority 2013, dated 2015).

Tests used:
[1] = Disintegration and dissolution time of lyophilisates, adjusted Ph. Eur. 7.4 oral lyophilisates method; type: physicochemical; conditions: lyophilisate about 1 mg from 12.5 % (m/V) solution, 300 µL TRIS buffer pH 7.4, about 22°C, no stirring
Description: Disintegration of substances described in Examples 5 and 6 were determined according to the method described in the European Pharmacopoeia 7.4 in monograph "tablets" section "oral lyophilisates". The disintegration time is acceptable if the oral lyophilisate disintegrates within 3 minutes in 200mL of "purified water R" at temperatures between 15°C and 25°C. Herein, disintegration is the loss of the overall structure, whereas dissolution means that the compound is completely dissolved.
This method was adjusted for the small volume lyophilisates which were used here (∼10 µL initial solution which corresponds to a lyophilysate mass of about 1 mg). Therefore the lyophilized product was added to 300 µL of TRIS buffer (adjusted pH 7.4 at 22°C) without any additional manipulation, e.g. shaking or stirring. In addition to the disintegration time the time until the whole product was completely dissolved, i.e. no visible particles detectable, has been determined at about 22°C (22.1 - 22.3 °C during the experiment).
. It was not possible to lyophilize pure amorphous calcium lactate due to rapid solidification and partially crystallization of the solution, which contained also 12.5%(m/V) amorphous calcium lactate. Table 9: Disintegration time and dissolution time for substances

[2] = Glass transition of the maximally frozen system Tg' by differential scanning calorimetry; conditions: solutions contained 12.5% (m/V) of the respective amorphous solid
Source text: Further, the temperature Tg' is the glass transition temperature of the maximally frozen system, i.e. the glass transition of the amorphous phase within an ice matrix (from ultrapure water).

[3] = Moisture uptake over saturated K2SO4 solution at about 100% relative humidity; conditions: about 25°C, amorphous except for CaCl2
[4] = Moisture uptake, modified Ph. Eur. 5.11 hygroscopicity method; type: physicochemical; conditions: mass increase during 24h storage over saturated ammonium sulfate solution, 25°C, about 100 mg
Description: It determines the mass increase (% (m/mo)) during a 24h storage period over a saturated ammonium sulfate solution.

[5] = Solubility, Ph. Eur. 5.11 procedure in TRIS buffer
Source text: Table 3: Categorization of solubility according to Ph. Eur. 7.4

citrated whole blood = experiment: ROTEM ex-tem assay, recalcification with freeze-dried pellets; conditions: freeze-dried CaCl2 pellets
Description: The compatibility with coagulation measurement was determined using the ROTEM® device. The measurement was conducted according to the respective automated ROTEM® sequence. 300 µL citrated whole blood (obtained from healthy individuals) were used for each measurement. The pipetting of the respective liquid reagents was performed according to the sequence or was skipped for the solid reagents. […] Coagulation was initiated using the tissue factor based ex-tem® reagent.
The ex-tem® assay was selected because of the tissue factor coagulation activation and the resulting short clotting times (CT). Therefore it was possible to investigate whether the freeze-dried products containing a high amount of solid would dissolve rapidly enough to assure complete recalcification and clotting times within a normal range.

[6] = Hygroscopicity measurement by mass increase in a glove box at relative air humidity > 50%; type: physicochemical; conditions: 1.0g sample, 22.5°C to […], 96 hours, referring to the initial mass
Description: The hygroscopicity of compounds was measured by weighing (Mettler AT261 "Delta Range" balance) in the samples at the start of the experiment and at certain time points within a total period of 96 hours. The increase in mass (in %) was calculated for each sample as: (mt -mt0)/(mt0) × 100% [formula] • wherein mt is the mass of the sample at a certain time t and Mt0 is the mass of the sample at the start when placing it in the glove box.

[7] = Glass transition temperature Tg by differential scanning calorimetry; type: physicochemical
Description: Hydranal® Coulomat AG Oven served as a reagent. About 10 mg of the substance was used for an expected residual moisture between 5 - 10%(m/m) and about 50 - 80 mg were used for an expected moisture content […]. […]
Primary drying was carried out at Tinlet = -30° C / 30mtorr for 15h followed by secondary drying at 40°C / 30mtorr for 6h with a heating rate between the two steps of 0.3 °C/min. The glass transition temperature as well as the residual moisture content were measured after freeze drying for the respective substance.

calcium lacto pantothenate [CLP]
Disintegration time [1]: <1 s
Dissolution time (mean ± sdv) [1]: 8 ± 1 s
Glass transition of the frozen system (Tg') [2]: -23.02 °C

calcium ascorbate lactobionate [CALB]
Disintegration time [1]: <1 s
Dissolution time (mean ± sdv) [1]: 12 ± 1 s
Glass transition of the frozen system (Tg') [2]: -13.28 °C

calcium lacto gluconate [CLG ME]
Uptake rate during 3h storage at 99.9 % rel. humidity (sat. K2SO4 sol.) [3]: 0.204 ratio compared to CaCl2
Disintegration time [1]: <1 s
Dissolution time (mean ± sdv) [1]: 19 ± 6 s
Glass transition of the frozen system (Tg') [2]: -11.74 °C

O=C([O-])[C@H](O)[C@@H](O)[C@H](O[C@@H]1O[C@H](CO)[C@H](O)[C@H](O)[C@H]1O)[C@H](O)CO.O=C([O-])[C@H](O)[C@@H](O)[C@H](O[C@@H]1O[C@H](CO)[C@H](O)[C@H](O)[C@H]1O)[C@H](O)CO.[Ca+2] [CLB, calcium lactobionate]
Uptake rate during 3h storage at 99.9 % rel. humidity (sat. K2SO4 sol.) [3]: 0.226 ratio compared to CaCl2
Disintegration time [1]: <1 s
Dissolution time (mean ± sdv) [1]: 13 ± 2 s
Ph. Eur. method Hygroscopicity [4]: 21.08 %(m/mo
Glass transition of the frozen system (Tg') [2]: -13.27 °C
Ph. Eur. method Solubility ([5]; 100mg substance, TRIS buffer isotonic pH = 7.4, 25.0°C, visual after 1 min. mixing and 15 min. storage): very soluble
Calculated solubility Cs ([5]; category limits of table 3 divided by Mr, 15 min): Cs ≥ 1.325 mol/L

[Ca+2].[Cl-].[Cl-] [CaCl2, calcium chloride, reference compound]
Uptake rate during 3h storage at 99.9 % rel. humidity (sat. K2SO4 sol.) [3]: 1.000 ratio compared to CaCl2
Ph. Eur. method Hygroscopicity [4]: CaCl2 = 113.9%(m/mo
behaviour of freeze-dried pellets (hygroscopicity) (citrated whole blood): liquefied rapidly
mass increase [6]: over 20%

CC(O)C(=O)[O-].CC(O)C(=O)[O-].[Ca+2] (stereo not shown) [CL, calcium lactate]
Uptake rate during 3h storage at 99.9 % rel. humidity (sat. K2SO4 sol.) [3]: 0.384 ratio compared to CaCl2
Ph. Eur. method Hygroscopicity [4]: 30.28 %(m/mo

calcium lactobionate pantothenate [CLBP]
Disintegration time [1]: <1 s
Dissolution time (mean ± sdv) [1]: 10 ± 2 s
Glass transition of the frozen system (Tg') [2]: -18.84 °C

calcium pantothenate [CP, reference compound]
Disintegration time [1]: <1 s
Dissolution time (mean ± sdv) [1]: 6 ± 1 s
Ph. Eur. method Hygroscopicity [4]: 22.02 %(m/mo
Glass transition of the frozen system (Tg') [2]: -25.28 °C

calcium ascorbate gluconate [CAG]
Disintegration time [1]: <1 s
Dissolution time (mean ± sdv) [1]: 11 ± 2 s
Ph. Eur. method Hygroscopicity [4]: 19.65 %(m/mo
Glass transition of the frozen system (Tg') [2]: -15.70 °C

Calcium lacto ascorbate [CLA]
Disintegration time [1]: <1 s
Dissolution time (mean ± sdv) [1]: 14 ± 3 s
Glass transition of the frozen system (Tg') [2]: -20.18 °C

calcium lacto lactobionate [CLLB]
Uptake rate during 3h storage at 99.9 % rel. humidity (sat. K2SO4 sol.) [3]: 0.357 ratio compared to CaCl2
Disintegration time [1]: <1 s
Dissolution time (mean ± sdv) [1]: 18 ± 4 s
Ph. Eur. method Hygroscopicity [4]: 19.18 %(m/mo
Glass transition of the frozen system (Tg') [2]: -15.58 °C
Tg ([7]; CLLB ratio 0, moisture content 14 %(m/m)): 34,39 °C
Tg ([7]; CLLB ratio 0, moisture content 5,196 %(m/m)): 112,86 °C
Tg ([7]; CLLB ratio 0, moisture content 10,151 %(m/m)): 58,45 °C
Tg ([7]; CLLB ratio 34.82, moisture content 0 %(m/m)): 143.05 °C
Tg ([7]; CLLB ratio 34.82, moisture content 4.44 %(m/m)): 104.03 °C
Tg ([7]; CLLB ratio 34.82, moisture content 7.26 %(m/m)): 73.08 °C
Tg ([7]; CLLB ratio 34.82, moisture content 9.86 %(m/m)): 56.42 °C
Tg ([7]; CLLB ratio 34.82, moisture content 11.82 %(m/m)): 47.945 °C
Tg ([7]; CLLB ratio 34.82, moisture content 14.60 %(m/m)): 32.13 °C
Tg ([7]; CLLB ratio 82.77, moisture content 0 %(m/m)): 148.05 °C
Tg ([7]; CLLB ratio 82.77, moisture content 5.19 %(m/m)): 96.38 °C
Tg ([7]; CLLB ratio 82.77, moisture content 6.35 %(m/m)): 79.84 °C
Tg ([7]; CLLB ratio 82.77, moisture content 6.93 %(m/m)): 73.34 °C
Tg ([7]; CLLB ratio 82.77, moisture content 8.00 %(m/m)): 67.39 °C
Tg ([7]; CLLB ratio 82.77, moisture content 14.49 %(m/m)): 34.39 °C
Tg ([7]; CLLB ratio %(m(CL)/m(CLB)) = 100, moisture content 0 %(m/m) (annealed)): 140.08 °C
Tg ([7]; CLLB ratio %(m(CL)/m(CLB)) = 100, moisture content 5.10 %(m/m)): 82.46 °C
Tg ([7]; CLLB ratio %(m(CL)/m(CLB)) = 100, moisture content 8.20 %(m/m)): 64.81 °C
Tg ([7]; CLLB ratio %(m(CL)/m(CLB)) = 100, moisture content 13.87 %(m/m)): 30.65 °C

calcium ascorbate [reference compound]
Disintegration time [1]: <1 s
Dissolution time (mean ± sdv) [1]: 11 ± 1 s
Ph. Eur. method Hygroscopicity [4]: 31.77 %(m/mo
Glass transition of the frozen system (Tg') [2]: -24.61 °C

calcium gluconate [CG, reference compound]
Uptake rate during 3h storage at 99.9 % rel. humidity (sat. K2SO4 sol.) [3]: 0.214 ratio compared to CaCl2
Disintegration time [1]: <1 s
Dissolution time (mean ± sdv) [1]: 9 ± 1 s
Ph. Eur. method Hygroscopicity [4]: 20.16 %(m/mo
Glass transition of the frozen system (Tg') [2]: -11.08 °C
